Article PMC11571207, “Stereorandomized Oncocins with Preserved Ribosome Binding and Antibacterial Activity” (Journal of Medicinal Chemistry, 2024)
≈ marks a conversion by molar mass, not a printed value. Where two headings read alike, the source gives them in different places. Non-standard residues stand in square brackets, D forms with d. Residues, ends and D or L forms follow the SMILES beside them.

Key:
[1] = system: E. cloacae; assay: microbe, parasite or virus in culture; details: for MIC E. cloacae: supplement CSV
Procedure, shortened: (§1)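 Minimal inhibitory concentrations come from broth microdilution in MH medium, with a top peptide concentration of 64 μg/mL halved serially.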

[2] = system: K. pneumoniae OXA-48; assay: microbe, parasite or virus in culture; details: for MIC K. pneumoniae OXA-48: supplement CSV
Procedure, shortened: as §1

[3] = system: P. aeruginosa PA14 2P4 (pmrB); assay: microbe, parasite or virus in culture; details: for MIC P. aeruginosa PA14 2P4: supplement CSV
Procedure, shortened: as §1

[4] = system: P. aeruginosa PA14; assay: microbe, parasite or virus in culture; details: for MIC P. aeruginosa PA14: supplement CSV
Procedure, shortened: as §1

[5] = system: P. aeruginosa ZEM-1A; assay: microbe, parasite or virus in culture; details: for MIC P. aeruginosa ZEM-1A: supplement CSV
Procedure, shortened: as §1

[6] = system: P. aeruginosa ZEM9A; assay: microbe, parasite or virus in culture; details: for MIC P. aeruginosa ZEM9A: supplement CSV
Procedure, shortened: as §1

[7] = system: E. coli BW25113 WT; details: Table S1, 16-20 h at 37 °C
Procedure: (§2) Minimum inhibitory concentration assay
(§3) Antimicrobial activity was assayed against P. aeruginosa PAO1, K. pneumoniae NCTC418, E. coli W3110, A. baumannii ATCC 19606, methicillin-resistant S. aureus COL (MRSA), and for selected peptides on P. aeruginosa PA14 and the polymyxin-B-resistant derivative PA14 2P4, as well as the clinical isolates ZEM-1A and ZEM9A, K. pneumoniae OXA-48, S. aureus Newman, Enterobacter cloacae and Burkholderia cenocepacia. The minimal inhibitory concentration (MIC) was determined by using broth microdilution method. A colo ny of bacteria was picked and grown in Luria-Bertani (LB) medium overnight at 37°C. For E. coli BW25113 sbmA::kan the medium was supplemented with 25 mg/L of kanamycin. The next day, the culture was then regrown in LB medium to log phase (OD600 = 0.6 to 0.8), which lasted approximately 4 h, and diluted to an OD600 of 0.022 in the desired medium. Stock solutions of 1 mg/mL of the samples were prepared in sterilized milliQ water and diluted to the beginning concentration of 64 μg/mL in 300 μL Mueller Hinton (MH)-medium. The diluted samples were added to first well of 96-well microtiter plate (TPP, untreated, Faust Laborbedarf, AG, Schaffhausen) and diluted serially by ½. Finally, 4 μL of the bacterial suspension was inoculated into the sample solutions (150 μL/well) with a final inoculation of about 5∙10^5 CFU/mL. The plates were then incubated at 37°C for 15-18h. For each assay, sterility (broth only) and growth control (broth with bacterial inoculum, without antibiotics) were checked with two columns in the plate. The next day, 15 μL of 3-(4,5-dimethylthiazol-2-yl)-2,5-diphenyltetrazolium bromide (MTT) was added to each well of the plate, such a way that MIC was defined as the lowest concentration of the peptide that inhibited visible growth of the tested […]
(§4) Table S1. Activity of stereorandomized and diastereomeric oncocins against E. coli BW25113 WT and BW25113 sbmA::kan mutant in full and 12.5% MH, at pH 7.4. […]
(§5) a) Minimum inhibitory concentration (MIC, μg/mL) was determined on E. coli BW25113 WT and […]

[8] = system: E. coli BW25113 sbmA::kan; details: Table S1, sbmA::kan mutant, 16-20 h at 37 °C
Procedure: as §2, §3, §4, §5

[9] = system: P. aeruginosa PA14 4.18 (pmrB); details: for MIC P. aeruginosa PA14 4.18: supplement CSV
[10] = system: human red blood cells; assay: Hemolysis assay, minimum hemolytic concentration
[11] = polymyxin B resistant strain, 12.5% MHB pH 7.4, 16–20 h at 37 °C
[12] = polymyxin B resistant strain, full MHB pH 7.4, 16–20 h at 37 °C
[13] = 12.5% Müller-Hinton medium pH 7.4
[14] = full Müller-Hinton medium pH 7.4

CC[C@H](C)[C@H](NC(=O)[C@H](CCCNC(=N)N)NC(=O)[C@H](CCCNC(=N)N)NC(=O)[C@@H]1CCCN1C(=O)[C@@H]1CCCN1C(=O)[C@H](CCCNC(=N)N)NC(=O)[C@@H]1CCCN1C(=O)[C@H](CCCNC(=N)N)NC(=O)[C@@H]1CCCN1C(=O)[C@@H](CC(C)C)NC(=O)[C@H](Cc1ccc(O)cc1)NC(=O)[C@@H]1CCCN1C(=O)[C@@H]1CCCN1C(=O)[C@H](CCCCN)NC(=O)[C@H](CC(=O)O)NC(=O)[C@@H](N)C(C)C)C(=O)N[C@@H](Cc1ccc(O)cc1)C(=O)N[C@@H](CC(N)=O)C(=O)N[C@@H](CCCNC(=N)N)C(N)=O [DL7-Onc] (H-VDKPPY[dL]PRPRPPRRIYNR-NH2)
MIC E. cloacae, 12.5% MHB ([1]; 12.5% MHB pH 7.4, 16–20 h at 37 °C): 32 µg/mL (≈ 13.4 µM)
MIC E. cloacae, full MHB ([1]; full MHB pH 7.4, 16–20 h at 37 °C): > 64 µg/mL
MIC E. cloacae ([1]; 12.5% MH pH 7.4): 32 µg/mL (≈ 13.4 µM)
MIC E. cloacae ([1]; full MH pH 7.4): >64 µg/mL
MIC K. pneumoniae OXA-48, 12.5% MHB ([2]; carbapenem-resistant, 12.5% MHB pH 7.4, 16–20 h at 37 °C): >64/>64 μg/mL
MIC K. pneumoniae OXA-48, full MHB ([2]; carbapenem-resistant, full MHB pH 7.4, 16–20 h at 37 °C): >64/>64 μg/mL
MIC K. pneumoniae OXA-48 ([2]; 12.5% MH pH 7.4): >64 µg/mL
MIC K. pneumoniae OXA-48 ([2]; full MH pH 7.4): >64 µg/mL
MIC P. aeruginosa PA14 2P4 (pmrB), 12.5% MHB [3, 11]: 32 µg/mL (≈ 13.4 µM)
MIC P. aeruginosa PA14 2P4 (pmrB), full MHB [3, 12]: > 64 µg/mL
MIC P. aeruginosa PA14 2P4 ([3]; 12.5% MH pH 7.4): 32 µg/mL (≈ 13.4 µM)
MIC P. aeruginosa PA14 2P4 ([3]; full MH pH 7.4): >64 µg/mL
MIC P. aeruginosa PA14, 12.5% MHB ([4]; 12.5% MHB pH 7.4, 16–20 h at 37 °C, two different duplicate MIC determinations): >32/>32 μg/mL
MIC P. aeruginosa PA14, full MHB ([4]; full MHB pH 7.4, 16–20 h at 37 °C, two different duplicate MIC determinations): >32/>32 μg/mL
MIC P. aeruginosa PA14 ([4]; 12.5% MH pH 7.4): >32 µg/mL
MIC P. aeruginosa PA14 ([4]; full MH pH 7.4): >32 µg/mL
MIC P. aeruginosa ZEM-1A, 12.5% MHB ([5]; clinical isolate, 12.5% MHB pH 7.4, 16–20 h at 37 °C, cells marked c: single measurement (in duplicates)): >64/>64 ^c μg/mL
MIC P. aeruginosa ZEM-1A, full MHB ([5]; clinical isolate, full MHB pH 7.4, 16–20 h at 37 °C, cells marked c: single measurement (in duplicates)): >64/>64 ^c μg/mL
MIC P. aeruginosa ZEM-1A ([5]; 12.5% MH pH 7.4): >64 µg/mL
MIC P. aeruginosa ZEM-1A ([5]; full MH pH 7.4): >64 µg/mL
MIC P. aeruginosa ZEM9A, 12.5% MHB ([6]; clinical isolate, 12.5% MHB pH 7.4, 16–20 h at 37 °C): >64/>64 μg/mL
MIC P. aeruginosa ZEM9A, full MHB ([6]; clinical isolate, full MHB pH 7.4, 16–20 h at 37 °C): >64/>64 μg/mL
MIC P. aeruginosa ZEM9A ([6]; 12.5% MH pH 7.4): >64 µg/mL
MIC P. aeruginosa ZEM9A ([6]; full MH pH 7.4): >64 µg/mL
MIC E. coli BW25113 WT, 12.5% MH [7, 13]: 32 µg/mL (≈ 13.4 µM)
MIC E. coli BW25113 WT, Full MH [7, 14]: > 64 µg/mL
MIC E. coli BW25113 SbmA-, 12.5% MH [8, 13]: 32 µg/mL (≈ 13.4 µM)
MIC E. coli BW25113 SbmA-, Full MH [8, 14]: > 64 µg/mL
MIC P. aeruginosa PA14 4.18 (pmrB), 12.5% MHB [9, 11]: >32/>32 μg/mL
MIC P. aeruginosa PA14 4.18 (pmrB), full MHB [9, 12]: >32/>32 μg/mL
MIC P. aeruginosa PA14 4.18 ([9]; 12.5% MH pH 7.4): >32 µg/mL
MIC P. aeruginosa PA14 4.18 ([9]; full MH pH 7.4): >32 µg/mL
Haemolysis on hRBC, MHC ([10]; 2.5% human red blood cells (final) in 10 mM phosphate, 150 mM NaCl, pH 7.4, 25 °C, 4 h, visual inspection): >1000 µg/mL
MHC human red blood cells ([10]; supplement CSV): >1000 µg/mL
